Reference: publication PMC9481106, “Design, synthesis and biological evaluation of 2,4-pyrimidinediamine derivatives as ALK and HDACs dual inhibitors for the treatment of ALK addicted cancer” (Journal of Enzyme Inhibition and Medicinal Chemistry, 2022)

What was measured:
HDAC1 = HDAC1 (Homo sapiens, UniProt Q13547); assay: enzyme inhibition assay with fluorescent assay kit; assay type: biochemical
[1] = biological target: ALK^wt (anaplastic lymphoma kinase) (Homo sapiens, UniProt Q9UM73); assay: enzyme inhibition assay with fluorescent assay kit; assay type: biochemical
Chain of ALK^wt (anaplastic lymphoma kinase) (Q9UM73 19-1620): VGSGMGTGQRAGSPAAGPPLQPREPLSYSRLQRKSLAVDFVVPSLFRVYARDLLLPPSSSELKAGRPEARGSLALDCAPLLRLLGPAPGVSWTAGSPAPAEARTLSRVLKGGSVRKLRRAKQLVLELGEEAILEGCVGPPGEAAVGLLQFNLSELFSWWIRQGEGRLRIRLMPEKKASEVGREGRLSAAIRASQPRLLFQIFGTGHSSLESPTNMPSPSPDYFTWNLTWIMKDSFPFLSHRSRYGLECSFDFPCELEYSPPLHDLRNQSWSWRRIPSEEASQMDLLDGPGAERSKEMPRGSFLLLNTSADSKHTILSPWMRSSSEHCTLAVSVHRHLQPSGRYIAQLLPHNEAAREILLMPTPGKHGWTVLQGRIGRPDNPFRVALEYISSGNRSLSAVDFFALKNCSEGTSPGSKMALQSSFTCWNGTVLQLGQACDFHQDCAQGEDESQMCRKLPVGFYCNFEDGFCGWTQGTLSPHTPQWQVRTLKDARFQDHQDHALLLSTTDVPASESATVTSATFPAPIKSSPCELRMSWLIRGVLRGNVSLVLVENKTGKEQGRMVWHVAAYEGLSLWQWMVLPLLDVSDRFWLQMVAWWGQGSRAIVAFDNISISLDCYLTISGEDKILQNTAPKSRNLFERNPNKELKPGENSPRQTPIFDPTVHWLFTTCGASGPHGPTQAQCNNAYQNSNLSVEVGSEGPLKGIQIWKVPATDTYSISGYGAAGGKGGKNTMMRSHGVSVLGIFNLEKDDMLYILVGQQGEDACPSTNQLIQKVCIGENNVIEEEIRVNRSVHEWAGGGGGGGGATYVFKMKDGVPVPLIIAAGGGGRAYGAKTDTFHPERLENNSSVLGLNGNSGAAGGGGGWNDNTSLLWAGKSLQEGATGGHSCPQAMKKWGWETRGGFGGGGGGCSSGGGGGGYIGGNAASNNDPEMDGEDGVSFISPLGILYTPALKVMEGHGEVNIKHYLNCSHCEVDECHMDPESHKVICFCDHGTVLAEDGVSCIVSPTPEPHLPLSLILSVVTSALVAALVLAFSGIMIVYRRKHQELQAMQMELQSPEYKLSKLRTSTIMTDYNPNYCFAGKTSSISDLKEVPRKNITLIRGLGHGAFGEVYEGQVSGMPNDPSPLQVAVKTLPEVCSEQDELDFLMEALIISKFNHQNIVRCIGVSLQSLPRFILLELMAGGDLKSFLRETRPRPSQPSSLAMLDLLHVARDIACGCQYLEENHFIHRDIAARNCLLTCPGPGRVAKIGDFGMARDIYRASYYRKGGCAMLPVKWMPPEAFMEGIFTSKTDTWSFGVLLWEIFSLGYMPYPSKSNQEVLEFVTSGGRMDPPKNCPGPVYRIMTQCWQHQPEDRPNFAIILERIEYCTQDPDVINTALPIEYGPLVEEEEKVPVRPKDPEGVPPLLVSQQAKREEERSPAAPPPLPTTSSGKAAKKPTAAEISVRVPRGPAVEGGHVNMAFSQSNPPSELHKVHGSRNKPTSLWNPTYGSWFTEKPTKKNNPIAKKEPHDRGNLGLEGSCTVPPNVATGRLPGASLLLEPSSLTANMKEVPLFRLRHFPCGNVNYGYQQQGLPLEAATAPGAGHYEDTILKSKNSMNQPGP

Chain of HDAC1 (Q13547 whole entry): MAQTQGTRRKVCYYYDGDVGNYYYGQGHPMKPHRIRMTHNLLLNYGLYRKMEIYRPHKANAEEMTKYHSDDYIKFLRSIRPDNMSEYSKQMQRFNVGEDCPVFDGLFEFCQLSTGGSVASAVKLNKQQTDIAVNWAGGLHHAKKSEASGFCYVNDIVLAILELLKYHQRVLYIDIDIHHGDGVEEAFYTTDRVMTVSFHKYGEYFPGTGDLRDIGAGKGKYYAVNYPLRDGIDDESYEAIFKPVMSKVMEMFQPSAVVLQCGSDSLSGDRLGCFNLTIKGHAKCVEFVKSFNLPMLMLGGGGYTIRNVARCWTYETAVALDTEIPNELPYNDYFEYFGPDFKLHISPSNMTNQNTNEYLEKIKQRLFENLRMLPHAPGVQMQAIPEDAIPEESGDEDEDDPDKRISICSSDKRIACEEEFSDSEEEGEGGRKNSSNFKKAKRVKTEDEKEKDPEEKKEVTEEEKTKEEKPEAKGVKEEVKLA

IC50 (HDAC1): 1450 nM
IC50 [1]: 9.5 nM
Structure (SMILES): CC(C)S(=O)(=O)c1ccccc1Nc1nc(Nc2ccc(C(=O)Nc3ccccc3N)cc2)ncc1Cl [12a, N-(2-aminophenyl)-4-((5-chloro-4-((2-(isopropylsulfonyl)phenyl)amino)pyrimidin-2-yl)amino)benzamide]
